Consider one compound from patent publication US12161756B2, “Pharmaceutical-loaded nanocomposite for treating pulmonary infections” (Imam Abdulrahman Bin Faisal University, priority 2021, dated 2024).

The data set deals with HFF normal cells (Human foreskin fibroblasts). Here is the method: Toxicity studies were carried out to evaluate any toxic effect of developed nanoformulations. Cells were treated for 48 h with the following conditions for Zinc-containing nanocomposites: ZnFe2O4/Halloysite, Halloysite, Dexamethasone (Dex), ZnFe2O4/Halloysite/Dex, ZnFe2O4/Halloysite/Dex/PEG, and PEG. Similar protocol was used for nickel-containing nanocomposites. Treatment concentrations were as follows: 0.0375, 0.075, 0.15, and 0.3 mg/mL. In addition, cells were treated with Dex at concentrations to reflect that loaded in the nanocomposite as follows: 0.00181, 0.00362, 0.00725, and 0.01449 mg/mL. […] To choose the optimal dose, cells were exposed to specific doses at different time points. Cells were treated with dose 2 (0.075 mg/mL, see FIG. 9A), dose 3 (0.15 mg/mL, see FIG. 9B), or dose 4 (0.3 mg/mL, see FIG. 9C) for 24, 48, and 72 h.

Consider `C[C@@H]1C[C@H]2[C@@H]3CCC4=CC(=O)C=C[C@]4(C)[C@@]3(F)[C@@H](O)C[C@]2(C)[C@@]1(O)C(=O)CO` [Dexamethasone, dexamethasone], for which the toxicity to cells entry is listed as “induce toxicity”. Further, the “dexamethasone dose found to be less toxic / usable dose” value (human, 48 h) is on record as “up to 0.00362 mg/mL”.
